Measurements from patent US9512111B2, “N-sulfonylated tetrahydroquinolines and related bicyclic compounds for inhibition of RORγ activity and the treatment of disease” (Lycera Corporation, priority 2010, dated 2016).

Molecular target: T1, RORγ-LBD (Homo sapiens, UniProt P51449)
T1 construct: HIS-tagged RORγ-LBD was recombinantly expressed in SF9 cells; made in house; host or cells: SF9 cells (baculovirus); unpurified lysate
T1 sequence (P51449 269-508 limits assumed): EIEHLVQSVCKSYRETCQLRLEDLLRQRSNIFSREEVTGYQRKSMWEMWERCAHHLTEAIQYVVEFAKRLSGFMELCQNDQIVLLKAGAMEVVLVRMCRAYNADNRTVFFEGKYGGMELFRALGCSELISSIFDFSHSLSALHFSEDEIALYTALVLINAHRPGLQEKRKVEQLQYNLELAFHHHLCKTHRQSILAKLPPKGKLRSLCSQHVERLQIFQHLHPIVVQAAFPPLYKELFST
Experiment: RORγ-Ligand Binding Domain TR-FRET Assay
Assay type: biochemical
Procedure: HIS-tagged RORγ-LBD was recombinantly expressed in SF9 cells using a baculovirus expression system. The protein was not purified. Cells were lysed and the lysate was used as a source for RORγ-LBD for the assay. A 1:80 dilution of RORγ-LBD lysate in assay buffer (25 mM HEPES pH 7.0, 100 mM NaCl, 0.01% Tween, 0.1% BSA) was prepared and 5 μL was added to each well (RORγ-LBD final concentration ˜10 nM). Control wells received lysate from SF9 cells not expressing RORγ-LBD.
Compounds to be tested were diluted to 100× final test concentration in DMSO and further diluted to 4× final test concentration using assay buffer to provide the test compound mixture. An aliquot (5 μL) of the test compound mixture was added to each well.
A 4× stock of biotinylated-LXXLL peptide from SRC1-2 (Biotin-[…]) was prepared in assay buffer and a 5 μL aliquot added to each well (450 nM final concentration). A 4× solution of europium tagged anti-HIS antibody (2 nM final concentration) and APC conjugated streptavidin (60 nM final concentration) were prepared and a 5 μL aliquot added to each well.
The final assay mixture was incubated for 4 hours to overnight, and the fluorescence signal was measured on an Envision plate reader: (Excitation filter=340 nm; APC emission=665 nm; Europium emission=615 nm; dichroic mirror=D400/D630; delay time=100 μs, integration time=200 μs).
IC50 values for test compounds were calculated from the quotient of the fluorescence signal at 665 nm divided by the fluorescence signal at 615 nm using GraphPad Prism software.

## CC(C)c1ccc(S(=O)(=O)n2ncc3ccc(NC(=O)c4c(F)cccc4Cl)cc32)cc1 [Compound V-120]
Table 8, indazoles
  IC50: < 15 µM

## O=C(Nc1ccc2cnn(S(=O)(=O)Cc3ccc(C(F)(F)F)cc3)c2c1)c1c(F)cccc1C(F)(F)F [Compound V-47]
Table 8, indazoles
  IC50: < 15 µM

## O=C(Nc1ccc2cnn(S(=O)(=O)c3ccc(N4CCOCC4)nc3)c2c1)c1c(F)cccc1Cl [Compound V-95]
Table 8, indazoles
  IC50: < 15 µM

## COc1ccc(S(=O)(=O)n2ncc3ccc(NC(=O)c4c(F)cccc4Cl)cc32)c(OC)c1 [Compound V-91]
Table 8, indazoles
  IC50: < 15 µM

## CCNCC1CN(S(=O)(=O)c2ccc(F)cc2)c2cc(NC(=O)c3c(F)cccc3Cl)ccc2O1 (stereo not shown) [VI-34]
benzoxazines, Table 9
  IC50: < 15 µM

## C=Cc1nn(S(=O)(=O)c2cccc(C(F)(F)F)c2)c2cc(NC(=O)c3c(F)cccc3Cl)ccc12 [Compound 9, 2-Chloro-6-fluoro-N-[1-(3-trifluoromethylbenzenesulfonyl)-3-vinyl-1H-indazol-6-yl]benzamide]
Table 8, indazoles
  IC50: < 15 µM

## Cc1cccc(S(=O)(=O)n2ncc3ccc(NC(=O)Cc4ccc(Cl)cc4)cc32)c1 [Compound V-31]
Table 8, indazoles
  IC50: < 15 µM

## O=C(Nc1ccc2cnn(S(=O)(=O)c3ccc(Cl)c(F)c3)c2c1)c1c(F)cccc1Cl [Compound V-80]
Table 8, indazoles
  IC50: < 15 µM

## CC(C)(C)c1cccc(S(=O)(=O)n2ncc3ccc(NC(=O)c4c(Cl)cccc4Cl)cc32)c1 [Compound V-67]
Table 8, indazoles
  IC50: < 15 µM

## CC(C)(C)c1cccc(S(=O)(=O)n2ncc3ccc(NC(=O)c4c(F)cccc4C(F)(F)F)cc32)c1 [Compound V-11]
Table 8, indazoles
  IC50: < 15 µM

## O=C(Nc1ccc2c(c1)N(S(=O)(=O)c1ccc(F)cc1)CC(C(F)(F)F)O2)c1c(F)cccc1F (stereo not shown) [VI-111]
benzoxazines, Table 9
  IC50: < 15 µM

## COc1cccc(S(=O)(=O)n2ncc3ccc(NC(=O)c4c(F)cccc4C(F)(F)F)cc32)c1 [Compound V-49]
Table 8, indazoles
  IC50: < 15 µM

## O=C(Nc1ccc2cnn(S(=O)(=O)c3ccc(F)c(F)c3)c2c1)c1c(F)cccc1Cl [Compound V-170]
Table 8, indazoles
  IC50: < 15 µM

## O=C(Nc1ccc2cnn(S(=O)(=O)c3cccc(C(F)(F)F)c3)c2c1)c1c(F)cccc1F [Compound V-64]
Table 8, indazoles
  IC50: < 15 µM

## O=C(Nc1ccc2cnn(S(=O)(=O)Cc3cc(C(F)(F)F)cc(C(F)(F)F)c3)c2c1)c1c(F)cccc1Cl [Compound V-93]
Table 8, indazoles
  IC50: < 15 µM

## Cc1ccc(F)c(S(=O)(=O)n2ncc3ccc(NC(=O)c4c(F)cccc4Cl)cc32)c1 [Compound V-101]
Table 8, indazoles
  IC50: < 15 µM

## O=C(Nc1ccc2cnn(S(=O)(=O)c3ccccc3F)c2c1)c1c(F)cccc1Cl [Compound V-143]
Table 8, indazoles
  IC50: < 15 µM

## CC(=O)c1ccc(S(=O)(=O)n2ncc3ccc(NC(=O)c4c(F)cccc4Cl)cc32)cc1 [Compound V-141]
Table 8, indazoles
  IC50: < 15 µM

## C[C@H]1CN(S(=O)(=O)c2cccc(C#N)c2)c2cc(NC(=O)c3c(F)cccc3C(F)(F)F)ccc2O1 [VI-4]
benzoxazines, Table 9
  IC50: < 15 µM

## Cc1nc(C)c(S(=O)(=O)n2ncc3ccc(NC(=O)c4c(F)cccc4Cl)cc32)s1 [Compound V-89]
Table 8, indazoles
  IC50: < 15 µM

## Cc1ccc(S(=O)(=O)n2ncc3ccc(NC(=O)c4c(F)cccc4Cl)cc32)c(C)c1 [Compound V-103]
Table 8, indazoles
  IC50: < 15 µM

## C[C@H]1CN(S(=O)(=O)c2ccc(F)cc2)c2cc(NC(=O)c3c(Cl)cccc3Cl)ccc2O1 [VI-18]
benzoxazines, Table 9
  IC50: < 15 µM

## Cn1cc(S(=O)(=O)n2ncc3ccc(NC(=O)c4c(F)cccc4Cl)cc32)cn1 [Compound V-112]
Table 8, indazoles
  IC50: < 15 µM

## Cc1cccc(Cl)c1C(=O)Nc1ccc2c(c1)N(S(=O)(=O)c1ccc(F)cc1)C[C@H](C)O2 [VI-21]
benzoxazines, Table 9
  IC50: < 15 µM

## O=C(Nc1ccc2cnn(S(=O)(=O)c3cccc(OC(F)(F)F)c3)c2c1)c1c(Cl)cccc1Cl [Compound V-74]
Table 8, indazoles
  IC50: < 15 µM

## O=C(Nc1ccc2cnn(S(=O)(=O)c3cccc(Cl)c3)c2c1)c1c(F)cccc1Cl [Compound V-53]
Table 8, indazoles
  IC50: < 15 µM

## N#Cc1ccc(S(=O)(=O)n2ncc3ccc(NC(=O)c4c(F)cccc4Cl)cc32)c(Cl)c1 [Compound V-146]
Table 8, indazoles
  IC50: < 15 µM

## N#Cc1cccc(S(=O)(=O)N2C[C@@H](CO)Oc3ccc(NC(=O)c4c(F)cccc4Cl)cc32)c1 [VI-59]
benzoxazines, Table 9
  IC50: < 15 µM

## Cc1cccc(F)c1C(=O)Nc1ccc2cnn(S(=O)(=O)c3cccc(C(F)(F)F)c3)c2c1 [Compound V-1]
Table 8, indazoles
  IC50: < 15 µM

## COc1cccc(S(=O)(=O)n2ncc3ccc(NC(=O)c4c(F)cccc4Cl)cc32)c1 [Compound V-148]
Table 8, indazoles
  IC50: < 15 µM

## O=C(Nc1ccc2cnn(S(=O)(=O)c3cc(F)cc(F)c3)c2c1)c1c(F)cccc1Cl [Compound V-114]
Table 8, indazoles
  IC50: < 15 µM

## Cc1nn(C(F)F)cc1S(=O)(=O)n1ncc2ccc(NC(=O)c3c(Cl)cccc3C(F)(F)F)cc21 [Compound V-21]
Table 8, indazoles
  IC50: < 15 µM

## COc1ccc(S(=O)(=O)n2ncc3ccc(NC(=O)c4c(F)cccc4Cl)cc32)cn1 [Compound V-162]
Table 8, indazoles
  IC50: < 15 µM

## N#Cc1cccc(S(=O)(=O)N2C[C@@H](CO)Oc3ccc(NC(=O)Cc4ccc(F)cc4)cc32)c1 [VI-58]
benzoxazines, Table 9
  IC50: < 15 µM

## COC(=O)c1cc(C)c(S(=O)(=O)n2ncc3ccc(NC(=O)c4c(F)cccc4Cl)cc32)s1 [Compound V-152]
Table 8, indazoles
  IC50: < 15 µM

## O=C(Nc1ccc2c(c1)N(S(=O)(=O)c1ccc(Cl)cc1)C[C@@H](CO)O2)c1c(F)cccc1F [VI-55]
benzoxazines, Table 9
  IC50: < 15 µM

## N#Cc1cccc(S(=O)(=O)N2C[C@H](CO)Oc3ccc(NC(=O)Cc4ccc(Cl)cc4)cc32)c1 [VI-61]
benzoxazines, Table 9
  IC50: < 15 µM

## O=C(Nc1ccc2cnn(S(=O)(=O)Cc3ccc(C(F)(F)F)cc3)c2c1)c1c(Cl)cccc1Cl [Compound V-71]
Table 8, indazoles
  IC50: < 15 µM

## Cc1cc(F)ccc1S(=O)(=O)n1ncc2ccc(NC(=O)c3c(F)cccc3Cl)cc21 [Compound V-163]
Table 8, indazoles
  IC50: < 15 µM

## COC(=O)c1cc(S(=O)(=O)n2ncc3ccc(NC(=O)c4c(F)cccc4Cl)cc32)oc1C [Compound V-150]
Table 8, indazoles
  IC50: < 15 µM

## C[C@H]1CN(S(=O)(=O)c2cccc(C#N)c2)c2cc(NC(=O)c3c(F)cccc3Cl)ccc2O1 [VI-6]
benzoxazines, Table 9
  IC50: < 15 µM

## N#Cc1cccc(S(=O)(=O)N2C[C@H](CO)Oc3ccc(NC(=O)Cc4ccc(F)cc4)cc32)c1 [VI-64]
benzoxazines, Table 9
  IC50: < 15 µM

## CC(C(=O)Nc1ccc2c(c1)N(S(=O)(=O)c1ccc(F)cc1)C[C@H](C)O2)c1ccc(Cl)cc1 (stereo partly shown) [VI-136]
benzoxazines, Table 9
  IC50: < 15 µM

## O=C(Nc1ccc2cnn(S(=O)(=O)c3ccc(OC(F)(F)F)cc3)c2c1)c1c(F)cccc1Cl [Compound V-153]
Table 8, indazoles
  IC50: < 15 µM

## Cc1cccc(S(=O)(=O)n2ncc3ccc(NC(=O)Cc4ccc(F)c(F)c4)cc32)c1 [Compound V-20]
Table 8, indazoles
  IC50: < 15 µM

## O=C(Cc1ccc(Cl)cc1)Nc1ccc2c(c1)N(S(=O)(=O)c1ccc(Cl)cc1)C[C@H](CO)O2 [VI-66]
benzoxazines, Table 9
  IC50: < 15 µM

## N#Cc1cccc(S(=O)(=O)N2C[C@@H](CO)Oc3ccc(NC(=O)c4c(F)cccc4F)cc32)c1 [VI-60]
benzoxazines, Table 9
  IC50: < 15 µM

## Cc1nn(C(F)F)cc1S(=O)(=O)n1ncc2ccc(NC(=O)Cc3ccc(F)cc3)cc21 [Compound V-22]
Table 8, indazoles
  IC50: < 15 µM

## O=C(Nc1ccc2cnn(S(=O)(=O)c3ccccc3Cl)c2c1)c1c(F)cccc1Cl [Compound V-136]
Table 8, indazoles
  IC50: < 15 µM

## Cc1cccc(S(=O)(=O)n2ncc3ccc(NC(=O)c4c(Cl)cccc4C(F)(F)F)cc32)c1 [Compound V-37]
Table 8, indazoles
  IC50: < 15 µM

## O=C(Nc1ccc2cnn(S(=O)(=O)c3cccc(Cl)c3)c2c1)c1c(F)cccc1F [Compound V-61]
Table 8, indazoles
  IC50: < 15 µM

## O=C(Nc1ccc2c(CO)nn(S(=O)(=O)c3cccc(C(F)(F)F)c3)c2c1)c1c(F)cccc1Cl [Compound 11, 2-Chloro-6-fluoro-N-[3-hydroxymethyl-1-(3-trifluoromethylbenzene-sulfonyl)-1H-indazol-6-yl]benzamide]
Table 8, indazoles
  IC50: < 15 µM

## O=C(Nc1ccc2cnn(S(=O)(=O)Cc3ccc(Cl)c(Cl)c3)c2c1)c1c(F)cccc1Cl [Compound V-139]
Table 8, indazoles
  IC50: < 15 µM

## O=C(Nc1ccc2cnn(S(=O)(=O)c3cc(Cl)ccc3F)c2c1)c1c(F)cccc1Cl [Compound V-169]
Table 8, indazoles
  IC50: < 15 µM

## C[C@H]1CN(S(=O)(=O)c2cccc(C#N)c2)c2cc(NC(=O)c3c(F)cccc3F)ccc2O1 [VI-2]
benzoxazines, Table 9
  IC50: < 15 µM

## COc1ccc(Br)cc1S(=O)(=O)n1ncc2ccc(NC(=O)c3c(F)cccc3Cl)cc21 [Compound V-83]
Table 8, indazoles
  IC50: < 15 µM

## CCCc1ccc(S(=O)(=O)n2ncc3ccc(NC(=O)c4c(F)cccc4Cl)cc32)cc1 [Compound V-115]
Table 8, indazoles
  IC50: < 15 µM

## C[C@H]1CN(S(=O)(=O)c2cccc(C#N)c2)c2cc(NC(=O)c3c(Cl)cccc3C(F)(F)F)ccc2O1 [VI-5]
benzoxazines, Table 9
  IC50: < 15 µM

## Cc1nn(C(F)F)cc1S(=O)(=O)n1ncc2ccc(NC(=O)c3c(F)cccc3F)cc21 [Compound V-13]
Table 8, indazoles
  IC50: < 15 µM

## O=C(Nc1ccc2c(c1)N(S(=O)(=O)c1ccc(F)cc1)CC(CC(F)(F)F)O2)c1c(F)cccc1Cl (stereo not shown) [VI-7]
benzoxazines, Table 9
  IC50: < 15 µM

## Cc1ccc(C)c(S(=O)(=O)n2ncc3ccc(NC(=O)c4c(F)cccc4Cl)cc32)c1 [Compound V-117]
Table 8, indazoles
  IC50: < 15 µM
